Measured values from the supplement of paper PMC8960247.
± gives the standard error.

Assays:
621-103 (TSC2-rescued) = assay: relative viability vs DMSO; higher = less cytotoxic; settings: serum: 10% FBS, 72 h
621-102 (TSC2-deficient) = assay: as above; settings: serum: 10% FBS, 72 h
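Also: immortalized renal angiomyolipoma cells stably carrying empty vector or TSC2, dosed in 384-well plates in DMEM, viability normalized to vehicle-treated wells within each plate.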

Row | Structure (SMILES) | relative viability (621-103 (TSC2-rescued); 0.0001 µM) [%] | relative viability (621-103 (TSC2-rescued); 0.001 µM) [%] | relative viability (621-103 (TSC2-rescued); 0.01 µM) [%] | relative viability (621-103 (TSC2-rescued); 0.1 µM) [%] | relative viability (621-103 (TSC2-rescued); 1 µM) [%] | relative viability (621-103 (TSC2-rescued); 10 µM) [%] | relative viability (621-102 (TSC2-deficient); 0.0001 µM) [%] | relative viability (621-102 (TSC2-deficient); 0.001 µM) [%] | relative viability (621-102 (TSC2-deficient); 0.01 µM) [%] | relative viability (621-102 (TSC2-deficient); 0.1 µM) [%] | relative viability (621-102 (TSC2-deficient); 1 µM) [%] | relative viability (621-102 (TSC2-deficient); 10 µM) [%]
1 | CCN(CCO)CCCOc1ccc2c(Nc3cc(CC(=O)Nc4cccc(F)c4)[nH]n3)ncnc2c1 [AZD1152-HQPA (Barasertib)] | 97.225 ± 0.04 | 98.1 ± 0.35 | 96.9 ± 0.98 | 91.9 ± 3.1 | 84.56 ± 0.56 | 85.5 ± 2.6 | 114 ± 6.7 | 111 ± 1.4 | 107 ± 2 | 79.4 ± 1.5 | 68.2 ± 0.79 | 73 ± 1.6
2 | Cc1cc(Nc2nc(N[C@@H](C)c3ncc(F)cn3)ncc2Cl)[nH]n1 [AZD1480] | 97.89 ± 0.31 | 89.6 ± 1.1 | 86.7 ± 3.9 | 92.2 ± 2.8 | 89.4 ± 2.6 | 53.6 ± 1.4 | 104 ± 2.1 | 101.7 ± 0.92 | 104 ± 1.7 | 100.8 ± 0.59 | 103 ± 3.8 | 87.7 ± 1.2
3 | O=C(c1cc(Cc2n[nH]c(=O)c3ccccc23)ccc1F)N1CCN(C(=O)C2CC2)CC1 [AZD2281 (Olaparib)] | 104 ± 1.5 | 103 ± 1.7 | 104.6 ± 0.91 | 99.6 ± 3.1 | 104 ± 1.5 | 98.4 ± 4.5 | 120 ± 2.1 | 129 ± 5.5 | 125 ± 5.6 | 120 ± 2.8 | 114.2 ± 0.69 | 81.75 ± 0.48
4 | Cc1ncc(-c2ccnc(Nc3ccc(S(C)(=O)=O)cc3)n2)n1C(C)C [AZD5438] | 110.9 ± 0.22 | 105.8 ± 0.22 | 98.7 ± 4.7 | 108 ± 1.6 | 89.4 ± 2.3 | 27.7 ± 0.92 | 103 ± 7.6 | 101 ± 1.4 | 95.4 ± 1.6 | 99.55 ± 0.14 | 88.1 ± 1.8 | 11.69 ± 0.054
5 | Cn1cnc2c(F)c(Nc3ccc(Br)cc3Cl)c(C(=O)NOCCO)cc21 [AZD6244 (Selumetinib)] | 101.6 ± 0.39 | 100.1 ± 0.89 | 105.2 ± 1 | 106 ± 1.1 | 104 ± 2.8 | 89 ± 2.5 | 84 ± 9.2 | 89.89 ± 0.22 | 96.8 ± 1.1 | 98.9 ± 5.4 | 84.7 ± 1.2 | 88.21 ± 0.5
6 | COc1ccc(-c2ccc3c(N4CCOC[C@@H]4C)nc(N4CCOC[C@@H]4C)nc3n2)cc1CO [AZD8055] | 90.4 ± 3.3 | 81.1 ± 4.3 | 69 ± 0.95 | 48.4 ± 0.71 | 34.6 ± 0.72 | 34.3 ± 1.4 | 80 ± 3.1 | 86.2 ± 2.7 | 66.51 ± 0.58 | 39.8 ± 0.67 | 21.4 ± 2.2 | 19 ± 0.54
7 | Cc1cc(C(=O)NOCCO)c(Nc2ccc(I)cc2F)n(C)c1=O [AZD8330] | 101.1 ± 0.99 | 92.9 ± 1.4 | 93.3 ± 1.4 | 93.1 ± 2.1 | 76.3 ± 0.95 | 68.4 ± 0.99 | 103 ± 1.4 | 102 ± 2.7 | 99.3 ± 1.3 | 96.05 ± 0.59 | 65.9 ± 1.7 | 58.5 ± 0.66
8 | CNC(=O)CN1CCC(Oc2cc3c(Nc4cccc(Cl)c4F)ncnc3cc2OC)CC1 [AZD8931] | 102 ± 1.5 | 99.7 ± 2.3 | 101 ± 2.6 | 100.3 ± 0.18 | 99 ± 1.7 | 83.2 ± 3.3 | 106 ± 2.5 | 104 ± 3 | 98.4 ± 2 | 96.61 ± 0.73 | 99.6 ± 2.1 | 93.4 ± 4.9
9 | CC(=O)O[C@H]1CC[C@@]2(C)C(=CC[C@@H]3[C@@H]2CC[C@]2(C)C(c4cccnc4)=CC[C@@H]32)C1 [Abiraterone Acetate (CB7630)] | 106 ± 5.8 | 104 ± 3.1 | 111 ± 2.3 | 111 ± 5.3 | 105 ± 2 | 102 ± 3.2 | 103 ± 1.5 | 108 ± 7 | 102 ± 0.7 | 97.3 ± 2.7 | 103 ± 1.2 | 94.6 ± 2.4
